# Laboratory results reported in ChEMBL document CHEMBL1201862, “PubChem BioAssay data set” (2004).
#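 Cultured in 96-well plates, cells were exposed to test compound for 48 hours across five concentrations. Abbreviation: GI50, concentration required for 50% inhibition of growth.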 Calls of active or inactive are those of the source. No stated cut-off is given here; in the data, active = GI50 up to about 1.1 µM and inactive = higher.
# How the values were obtained:
# Experiment in all cases: DTP human tumour cell line panel, 48 h
# 786-0 = tested on: 786-0
# A498 = tested on: A498
# A549 = tested on: A549
# ACHN = tested on: ACHN
# CAKI-1 = tested on: CAKI-1
# CCRF-CEM = tested on: CCRF-CEM
# COLO 205 = tested on: COLO 205
# DU-145 = tested on: DU-145
# EKVX = tested on: EKVX
# HCC 2998 = tested on: HCC 2998
# HCT-116 = tested on: HCT-116
# HL-60 = tested on: HL-60
# HOP-62 = tested on: HOP-62
# HOP-92 = tested on: HOP-92
# HT-29 = tested on: HT-29
# Hs-578T = tested on: Hs-578T
# IGROV-1 = tested on: IGROV-1
# K562 = tested on: K562
# KM12 = tested on: KM12
# LOX IMVI = tested on: LOX IMVI
# M14 = tested on: M14
# MDA-MB-231 = tested on: MDA-MB-231
# MDA-MB-435 = tested on: MDA-MB-435
# MDA-N = tested on: MDA-N
# MOLT-4 = tested on: MOLT-4
# Malme-3M = tested on: Malme-3M
# NCI-H226 = tested on: NCI-H226
# NCI-H23 = tested on: NCI-H23
# NCI-H460 = tested on: NCI-H460
# NCI-H522 = tested on: NCI-H522
# NCI/ADR-RES = tested on: NCI/ADR-RES
# OVCAR-3 = tested on: OVCAR-3
# OVCAR-4 = tested on: OVCAR-4
# OVCAR-5 = tested on: OVCAR-5
# OVCAR-8 = tested on: OVCAR-8
# PC-3 = tested on: PC-3
# RPMI-8226 = tested on: RPMI-8226
# RXF 393 = tested on: RXF 393
# SF-268 = tested on: SF-268
# SF-295 = tested on: SF-295
# SF-539 = tested on: SF-539
# SK-MEL-28 = tested on: SK-MEL-28
# SK-MEL-5 = tested on: SK-MEL-5
# SK-OV-3 = tested on: SK-OV-3
# SN12C = tested on: SN12C
# SNB-19 = tested on: SNB-19
# SNB-75 = tested on: SNB-75
# SR = tested on: SR
# SW-620 = tested on: SW-620
# TK-10 = tested on: TK-10
# UACC-257 = tested on: UACC-257
# UACC-62 = tested on: UACC-62
# UO-31 = tested on: UO-31
# HCT-15 = tested on: HCT-15
# MCF7 = tested on: MCF7
# T47D = tested on: T47D
# U-251 = tested on: U-251
structure (smiles),measurement,setting,value
COC(=O)CC(SCCO)SCCO,GI50,786-0,> 100 µM (inactive)
same,GI50,A498,> 100 µM (inactive)
same,GI50,A549,> 100 µM (inactive)
same,GI50,ACHN,> 100 µM (inactive)
same,GI50,CAKI-1,> 100 µM (inactive)
same,GI50,CCRF-CEM,> 100 µM (inactive)
same,GI50,COLO 205,> 100 µM (inactive)
same,GI50,DU-145,> 100 µM (inactive)
same,GI50,EKVX,> 100 µM (inactive)
same,GI50,HCC 2998,> 100 µM (inactive)
same,GI50,HCT-116,> 100 µM (inactive)
same,GI50,HL-60,> 100 µM (inactive)
same,GI50,HOP-62,> 100 µM (inactive)
same,GI50,HOP-92,> 100 µM (inactive)
same,GI50,HT-29,> 100 µM (inactive)
same,GI50,Hs-578T,> 100 µM (inactive)
same,GI50,IGROV-1,> 100 µM (inactive)
same,GI50,K562,> 100 µM (inactive)
same,GI50,KM12,> 100 µM (inactive)
same,GI50,LOX IMVI,> 100 µM (inactive)
same,GI50,M14,> 100 µM (inactive)
same,GI50,MDA-MB-231,> 100 µM (inactive)
same,GI50,MDA-MB-435,> 100 µM (inactive)
same,GI50,MDA-N,> 100 µM (inactive)
same,GI50,MOLT-4,> 100 µM (inactive)
same,GI50,Malme-3M,> 100 µM (inactive)
same,GI50,NCI-H226,> 100 µM (inactive)
same,GI50,NCI-H23,> 100 µM (inactive)
same,GI50,NCI-H460,70.3 µM (inactive)
same,GI50,NCI-H522,> 100 µM (inactive)
same,GI50,NCI/ADR-RES,> 100 µM (inactive)
same,GI50,OVCAR-3,> 100 µM (inactive)
same,GI50,OVCAR-4,> 100 µM (inactive)
same,GI50,OVCAR-5,> 100 µM (inactive)
same,GI50,OVCAR-8,> 100 µM (inactive)
same,GI50,PC-3,> 100 µM (inactive)
same,GI50,RPMI-8226,> 100 µM (inactive)
same,GI50,RXF 393,> 100 µM (inactive)
same,GI50,SF-268,> 100 µM (inactive)
same,GI50,SF-295,> 100 µM (inactive)
same,GI50,SF-539,> 100 µM (inactive)
same,GI50,SK-MEL-28,> 100 µM (inactive)
same,GI50,SK-MEL-5,> 100 µM (inactive)
same,GI50,SK-OV-3,> 100 µM (inactive)
same,GI50,SN12C,> 100 µM (inactive)
same,GI50,SNB-19,> 100 µM (inactive)
same,GI50,SNB-75,75.7 µM (inactive)
same,GI50,SR,> 100 µM (inactive)
same,GI50,SW-620,> 100 µM (inactive)
same,GI50,TK-10,> 100 µM (inactive)
same,GI50,UACC-257,> 100 µM (inactive)
same,GI50,UACC-62,> 100 µM (inactive)
same,GI50,UO-31,> 100 µM (inactive)
CN1CCC2(CC1)/C(=N/C1CCCCC1)NC(=O)N2c1ccccc1,GI50,786-0,> 100 µM (inactive)
same,GI50,A498,> 100 µM (inactive)
same,GI50,A549,> 100 µM (inactive)
same,GI50,ACHN,> 100 µM (inactive)
same,GI50,CCRF-CEM,> 100 µM (inactive)
same,GI50,COLO 205,> 100 µM (inactive)
same,GI50,DU-145,> 100 µM (inactive)
same,GI50,EKVX,> 100 µM (inactive)
same,GI50,HCC 2998,> 100 µM (inactive)
same,GI50,HCT-116,> 100 µM (inactive)
same,GI50,HCT-15,> 100 µM
same,GI50,HL-60,> 100 µM (inactive)
same,GI50,HOP-62,> 100 µM (inactive)
same,GI50,HOP-92,43.7 µM (inactive)
same,GI50,HT-29,> 100 µM (inactive)
same,GI50,Hs-578T,> 100 µM (inactive)
same,GI50,IGROV-1,> 100 µM (inactive)
same,GI50,KM12,> 100 µM (inactive)
same,GI50,M14,> 100 µM (inactive)
same,GI50,MCF7,> 100 µM (inactive)
same,GI50,MDA-MB-231,> 100 µM (inactive)
same,GI50,MOLT-4,> 100 µM (inactive)
same,GI50,Malme-3M,> 100 µM (inactive)
same,GI50,NCI-H226,> 100 µM (inactive)
same,GI50,NCI-H23,> 100 µM (inactive)
same,GI50,NCI-H460,> 100 µM (inactive)
same,GI50,NCI/ADR-RES,> 100 µM (inactive)
same,GI50,OVCAR-5,> 100 µM (inactive)
same,GI50,OVCAR-8,> 100 µM (inactive)
same,GI50,RPMI-8226,> 100 µM (inactive)
same,GI50,RXF 393,> 100 µM (inactive)
same,GI50,SF-268,> 100 µM (inactive)
same,GI50,SF-295,> 100 µM (inactive)
same,GI50,SK-MEL-28,> 100 µM (inactive)
same,GI50,SK-MEL-5,> 100 µM (inactive)
same,GI50,SK-OV-3,> 100 µM (inactive)
same,GI50,SN12C,> 100 µM (inactive)
same,GI50,SNB-19,> 100 µM (inactive)
same,GI50,SNB-75,> 100 µM (inactive)
same,GI50,SR,> 100 µM (inactive)
same,GI50,SW-620,> 100 µM (inactive)
same,GI50,T47D,> 100 µM (inactive)
same,GI50,TK-10,> 100 µM (inactive)
same,GI50,U-251,> 100 µM (inactive)
same,GI50,UACC-257,> 100 µM (inactive)
same,GI50,UACC-62,> 100 µM (inactive)
same,GI50,UO-31,> 100 µM (inactive)
